Measured values from PMC12469672, “Effects on Oral Squamous Carcinoma Cell Lines and Their Mechanisms of Pyrazole N-Aryl Sulfonate: A Novel Class of Selective Cyclooxygenase-2 Inhibitors” (International Journal of Molecular Sciences, 2025).

Assays:
MMP9 mRNA in SAS cells = assay: RT-qPCR MMP9 mRNA, SAS; assay type: cell-based; conditions: vs control
Method: Equal amounts of RNA were reverse transcribed into cDNA using the Reverse Transcription Kit (AG11705, Accurate Biology, Guangzhou, China) following the manufacturer’s instructions. Quantitative PCR was performed on a QIAGEN Rotor-GeneQ system (9001862, QIAGEN, Hilden, Germany) with SYBR Green Pro Taq HS Premix II (AG11702, Accurate Biology, China).
The PCR protocol consisted of initial denaturation at 95 °C for 30 s, followed by 40 cycles of 95 °C for 5 s and 60 °C for 30 s. All reactions were performed in triplicate, with melting curve analysis confirming amplification specificity. The expression of the target genes was normalized to GAPDH, and fold changes were calculated in the manner of the 2^−ΔΔCT .

[1] = test system: JAK/STAT signaling pathway in SAS cells; assay: Western blot JAK/STAT signaling pathway, SAS; assay type: cell-based
Method: Cell lysates were centrifuged at 12,000× g for 10 min at 4 °C and then quantified using the BCA Protein Assay Kit (CW0014S, Cwbio, Taizhou, China). The lysate was denatured with sodium dodecyl sulfate–polyacrylamide gel electrophoresis (SDS-PAGE) sample loading buffer (P1040, Solarbio, Beijing, China), followed by SDS-PAGE and electrotransfer to polyvinylidene difluoride membranes (10600023, Cytiva, Marlborough, MA, USA). […] The bands were visualized by employing an ECL detection reagent (36208ES76, Yeasen, Shanghai, China) and independently quantified twice using ImageJ (v1.8.0.322) and ChemiScope Analysis (Version 2.1.6.0) software. […]

[2] = cited from earlier work
[3] = cited from earlier work; remark: listed apart in the source

Compound: Cc1ccc(-c2cc(C)n(S(=O)(=O)Oc3ccc(I)cc3)n2)cc1 [Compound 4b]
- MMP9 mRNA level (MMP9 mRNA in SAS cells): significant reduction
- p-JAK1 level (Western blot) [1]: no significant change
- anti-inflammatory and analgesic activities [2]: excellent
- oral toxicity [3]: low oral toxicity

Compound: Cc1ccc(-c2cc(C)n(S(=O)(=O)Oc3ccccc3Cl)n2)cc1 [Compound 4d]
- total JAK1 (Western blot) ([1]; vs NC): reached statistical significance
- anti-inflammatory and analgesic activities [2]: excellent
- oral toxicity [3]: low oral toxicity
